Assay results taken from ChEMBL document CHEMBL5136980, “Indoleamine 2,3-dioxygenase 1 (IDO1) inhibitors and PROTAC-based degraders for cancer therapy” (Eur J Med Chem, 2022).

system: Ehrlich; assay: Antitumor activity against mouse Ehrlich ascites carcinoma allografted in Swiss albino mouse assessed tumor growth inhibition by measuring CD8+ T cells relative to control; assay type: functional; details: not given

Row | SMILES | TGI
1 | NC(=O)c1n[nH]nc1-c1ccc(F)c(F)c1 | 96%

biological target: T1, Protein cereblon/Indoleamine 2,3-dioxygenase 1 (Homo sapiens, UniProt P14902+Q96SW2); assay: Protac activity at CRBN/IDO1 in human HeLa cells assessed as IDO1 protein degradation relative to control; assay type: cell-based; details: not given
Target sequence in this assay (P14902 whole entry, looked up): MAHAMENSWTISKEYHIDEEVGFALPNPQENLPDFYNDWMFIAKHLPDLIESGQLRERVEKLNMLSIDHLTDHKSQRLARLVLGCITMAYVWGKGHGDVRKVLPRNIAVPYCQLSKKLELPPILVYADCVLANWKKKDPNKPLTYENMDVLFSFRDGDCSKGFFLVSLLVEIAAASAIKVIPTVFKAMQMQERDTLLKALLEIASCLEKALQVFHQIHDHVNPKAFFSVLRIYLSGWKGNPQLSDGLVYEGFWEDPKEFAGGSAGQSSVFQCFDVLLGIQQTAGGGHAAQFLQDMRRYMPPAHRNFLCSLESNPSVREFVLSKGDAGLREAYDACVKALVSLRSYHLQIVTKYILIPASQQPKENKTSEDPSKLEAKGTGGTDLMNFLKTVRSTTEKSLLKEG
Target sequence in this assay (Q96SW2 whole entry, looked up): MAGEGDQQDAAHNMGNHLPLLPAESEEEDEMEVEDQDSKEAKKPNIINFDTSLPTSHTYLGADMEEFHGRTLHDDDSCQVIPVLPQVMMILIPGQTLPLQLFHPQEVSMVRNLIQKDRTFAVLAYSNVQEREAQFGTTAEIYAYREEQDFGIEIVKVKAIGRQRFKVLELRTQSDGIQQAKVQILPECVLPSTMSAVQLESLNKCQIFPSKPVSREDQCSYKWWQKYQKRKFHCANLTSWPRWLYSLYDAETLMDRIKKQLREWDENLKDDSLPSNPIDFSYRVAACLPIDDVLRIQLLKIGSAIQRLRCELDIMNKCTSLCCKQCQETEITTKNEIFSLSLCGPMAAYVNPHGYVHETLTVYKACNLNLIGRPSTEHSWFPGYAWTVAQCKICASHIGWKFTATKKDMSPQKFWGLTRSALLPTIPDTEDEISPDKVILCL

Row | Emax | SMILES
2 | 93% | O=C1CCC(N2C(=O)c3cccc(NCCOCCOCCOCCOCCOCCOCCOCCNCCNc4nonc4/C(=N/O)Nc4cccc(Br)c4)c3C2=O)C(=O)N1 (configuration not stated)

species: Homo sapiens; assay: Ratio of IC50 for IDO1 (unknown origin) to IC50 for IDO1 in human HeLa cells; assay type: cell-based; details: not given

Row | SMILES | Ratio IC50
3 | Clc1ccc(Nc2cn[nH]n2)cc1 | > 500

biological target: T2, Indoleamine 2,3-dioxygenase 1 (Homo sapiens, UniProt P14902); assay: Inhibition of IDO1 (unknown origin) using L-tryptophan incubated for 30 mins by microplate reader method; details: not given
T2 sequence (P14902 whole entry): as the sequence (P14902 whole entry, looked up) above

Row | IC50 | SMILES
4 | 240 nM | CC1=CCC[C@@H](C)[C@]1(C)C[C@]1(C)[C@@H](O)CC[C@]2(C)[C@@]3(C)CC[C@]4(C)c5c(C(O)C(=O)O)ccc(O)c5C[C@H]4[C@]3(C)CC[C@]21C (some centres not stated)

biological target: T1, Protein cereblon/Indoleamine 2,3-dioxygenase 1; assay: Protac activity at CRBN/IDO1 in human HeLa cells assessed as IDO1 protein degradation; assay type: cell-based; details: not given
Target sequence in this assay (P14902 whole entry): as the sequence (P14902 whole entry, looked up) above
Target sequence in this assay (Q96SW2 whole entry): as the sequence (Q96SW2 whole entry, looked up) above

Row | DC50 | SMILES
5 | 2840 nM | O=C1CCC(N2C(=O)c3cccc(NCCOCCOCCOCCOCCOCCOCCOCCNCCNc4nonc4/C(=N/O)Nc4cccc(Br)c4)c3C2=O)C(=O)N1 (configuration not stated)

biological target: T2, Indoleamine 2,3-dioxygenase 1; assay: Inhibition of IDO1 in IFN-gamma stimulated human HeLa cells in presence of heme measured after 20 hrs by heme-competitive binding assay; assay type: cell-based; details: not given

Row | IC50 | SMILES
6 | < 100 nM | C[C@@H](C(=O)Nc1ccc(C#N)cc1)[C@H]1CC[C@@H](c2ccnc3ccc(F)cc32)CC1

system: HeLa; assay: Cytotoxicity against human HeLa cells assessed as cell viability incubated for 48 hrs by MTT assay; assay type: functional, cell-based; details: not given

Row | SMILES | IC50
7 | O=C1CCC(N2C(=O)c3cccc(NCCOCCOCCOCCOCCOCCOCCOCCNCCNc4nonc4/C(=N/O)Nc4cccc(Br)c4)c3C2=O)C(=O)N1 (configuration not stated) | 37400 nM

biological target: T2, Indoleamine 2,3-dioxygenase 1; assay: Inhibition of IDO1 (unknown origin); details: not given

Row | SMILES | IC50
8 | CC(C(=O)Nc1ccc(Cl)cc1)N1CCC(Oc2ccnc3ccc(F)cc23)CC1 (configuration not stated) | > 50 nM
9 | CC(C(=O)Nc1ccc(Cl)cc1)[C@H]1CC[C@H](Oc2ccnc(C(F)(F)F)c2)CC1 (some centres not stated) | > 250 nM
10 | O=C(Nc1ccc(Cl)cc1)N[C@H]1CC[C@H](c2ccnc3ccc(F)cc32)CC1 | < 50 nM
11 | C[C@@H](NS(=O)(=O)c1cccc(Cl)c1)[C@H]1CC[C@@H](c2ccnc3ccc(F)cc32)CC1 | < 50 nM
12 | O=C1CCC(N2C(=O)c3cccc(NCCOCCOCCOCCOCCOCCOCCOCCNCCNc4nonc4/C(=N/O)Nc4cccc(Br)c4)c3C2=O)C(=O)N1 (configuration not stated) | 1070 nM
13 | CC(C)Oc1ccc(S(=O)(=O)NC2CCCc3cnccc32)cc1 (configuration not stated) | < 50 nM
14 | CC(C(=O)Nc1ccc(Cl)cc1)C1CCC(c2ccnc(C(F)(F)F)c2)CC1 (configuration not stated) | < 50 nM
15 | C[C@@H](NC(=O)c1ccc(Cl)cc1)[C@H]1CC[C@@H](c2ccnc3ccc(F)cc32)CC1 | < 50 nM

The next lines start with the values.

Row | IC50 | SMILES
16 | < 50 nM | N#Cc1ccc(NC(=O)NCC2c3ccccc3-c3cncn32)cc1 (configuration not stated)
17 | 4 nM | Cn1cc(-c2ccc(NC(=O)N3CCC(C(=O)/C(=N/O)Nc4ccc(F)c(Br)c4)CC3)cc2)cn1
18 | 111 nM | COC1CN(CCNc2nc3c(F)c(F)cc(/C(=N/O)Nc4cccc(Br)c4)c3[nH]2)C1
19 | 16 nM | Cn1cc(-c2cc(F)c(NC(=O)NCC3c4ccccc4-c4cncn43)cc2F)cn1 (configuration not stated)
20 | < 1 nM | O/N=C(/CCC1CCCCC1)Nc1cccc(Cl)c1
21 | < 100 nM | OC1CCC(C(F)(F)CC2c3c(F)cccc3-c3cncn32)CC1 (configuration not stated)
22 | 1.57 nM | Nc1nonc1/C(=N/O)N1Cc2ccccc2C1
23 | < 100 nM | OC(CC1c2cc(F)ncc2-c2cncn21)C1CCCCC1 (configuration not stated)
24 | > 50 nM | CCC(C(=O)Nc1ccc(Cl)cc1)[C@H]1CC[C@H](Oc2ccnc3ccccc23)CC1 (some centres not stated)
25 | > 50 nM | O=S(=O)(Nc1cccc2cnccc12)c1ccc2c(c1)OCCO2
26 | < 200 nM | O[C@@H](C[C@H]1c2ccccc2-c2cncn21)c1cc2ccoc2cc1F

system: not listed separately; assay: Oral bioavailability in ICR mouse 30 mg/kg measured after 0.0833 to 24 hrs by liquid chromatography/tandem mass spectrometric analysis; assay type: ADME, organism-based; details: in vivo, time 0.0833-24 hrs

Row | bioavailability | SMILES
27 | 96% | O=S(=O)(NCCCOc1ccccc1-c1c[nH]cn1)C(F)(F)F
